Several values for one entry are separate records, joined by “and”; a condition that tells them apart may be missing. Equal values may be shown once. Entries after “also recorded” stand apart in the source; their conditions may differ.
Columns and labels:
sfGFP^151(AXC) gene = experiment: UBP retention in the sfGFP gene by streptavidin gel shift assay (in vivo screen of dXTPs); format: cell-based, E. coli; conditions: dTPT3TP 10 μM, strain YZ3
Protocol: (§1) These plasmids were used to transform E. coli expressing the nucleoside triphosphate transporter PtNTT2 (strain YZ38) and harboring a plasmid encoding Mb PylRS. After transformation, colonies were selected and grown to an OD600˜1.0 in liquid media supplemented with dTPT3TP (10 μM) and one of seven different dXTPs (FIG. 2) added at varying concentrations (150 μM, 10 μM, or 5 μM). Cells were then diluted into fresh expression media containing the same unnatural deoxyribonucleotides as well as NaMTP (250 μM), TPT3TP (30 μM), and AzK (10 mM). After a brief incubation, T7 RNAP and tRNAPyl(GYT) expression was induced by the addition of isopropyl-β-d-thiogalactoside (IPTG, 1 mM). After an additional 1 h of incubation, the expression of sfGFP^151(AXC) was initiated by the addition of anhydrotetracycline (aTc, 100 ng/mL).
(§2) Analysis of PCR products. After 2.5 h, plasmids were isolated and then the genes of interest were independently PCR amplified using d5SICSTP and a biotinylated analog of dNaMTP7. The resulting PCR product was analyzed via a gel mobility shift assay using streptavidin to quantify the UBP retained as a percent shift of the total amplified product (hereafter referred to as the streptavidin gel shift assay) (FIG. 3A and FIG. 3B).
In vivo Translation Screen of dXTPs. An overnight culture of the SSO strain YZ3 carrying the pGEX-MbPylRS TetR plasmid was grown in 2×YT supplemented with 50 mM potassium phosphate, […] chloramphenicol and 100 μg/mL carbenicillin (herein referred to in this section as “media”), then diluted back to an OD600 of 0.03 in the same media and grown to an OD600 of 0.4 to 0.6. The culture was then chilled with shaking over ice-water for 15 minutes then pelleted by centrifugation at 3,200×g for 10 min. Cells were then resuspended and washed with ice-cold ddH2O twice then resuspended in ice-cold ddH2O to an OD600 of 55-65. The electrocompetent cells (50 μL) and 1 ng of Golden Gate assembled plasmid with the UBP within the sfGFP and tRNAPyl genes (see Golden Gate Assembly of Plasmids) were transferred to a pre-chilled electroporation cuvette (0.2-cm-gap), then electroporated (Gene Pulser II; Bio-Rad) according to manufacturer's recommendations (voltage […], capacitor 2.5 μF, resistor 200Ω), and then immediately diluted with 950 μL of media. An aliquot (40 μL) of the transformation was then diluted five-fold in media supplemented with dNaMTP (150 μM) and dTPT3TP (10 μM) for a final volume of 200 μL then allowed to recover for 1 h shaking at 37° C. […] The culture was monitored for cell growth (Envision 2103 Multilabel Plate Reader with a 590/20 nm filter) and then collected at an OD600˜1.0. […]

tRNA^Pyl(GYT) gene = experiment: UBP retention in the tRNA gene by streptavidin gel shift assay (in vivo screen of dXTPs); format: cell-based, E. coli; conditions: dTPT3TP 10 μM, strain YZ3
Protocol: as §1, §2
In vivo Translation Screen of dXTPs. An overnight culture of the SSO strain YZ3 carrying the pGEX-MbPylRS TetR plasmid was grown in 2×YT supplemented with 50 mM potassium phosphate, […] chloramphenicol and 100 μg/mL carbenicillin (herein referred to in this section as “media”), then diluted back to an OD600 of 0.03 in the same media and grown to an OD600 of 0.4 to 0.6. The culture was then chilled with shaking over ice-water for 15 minutes then pelleted by centrifugation at 3,200×g for 10 min. Cells were then resuspended and washed with ice-cold ddH2O twice then resuspended in ice-cold ddH2O to an OD600 of 55-65. […] The culture was monitored for cell growth (Envision 2103 Multilabel Plate Reader with a 590/20 nm filter) and then collected at an OD600˜1.0. […]

sfGFP^151(AXC) [1] = experiment: Bulk culture sfGFP fluorescence normalized to cell growth (in vivo screen of dXTPs); format: cell-based, E. coli; conditions: for sfGFP fluorescence normalized to cell growth: AzK added
Protocol: as §1
Analysis of reporter protein production. To characterize the amount of protein produced, bulk culture fluorescence normalized to cell growth was measured 2.5 h after the induction of protein expression (FIG. 3C). […] Cells growth was not observed when provided with only 5 μM dNaMTP. While similar at high concentrations, at lower concentrations the use of each dXTP analog results in a greater AzK-dependent increase in fluorescence than does the use of dNaMTP.
Ten-fold dilutions of the glycerol stock were re-plated onto solid growth media supplemented with dNaMTP (150 μM), dTPT3TP (10 μM), and 2% w/v agar, then grown at 37° C. overnight. Single colonies were picked and grown in growth media (300 μL) supplemented with corresponding dXTP (various concentrations), and dTPT3TP (10 μM), then monitored for cell growth and collected at an OD600˜1.0. Once all samples were collected, samples were left on ice overnight. The samples were then re-diluted to OD600˜0.1, to a final volume of 300 μL and provided with the corresponding dXTP (various concentrations), and dTPT3TP (10 μM). […] From this point on, cells were monitored for growth and fluorescence. […]

sfGFP^151(AXC) [2] = experiment: Fidelity of AzK incorporation into sfGFP, DBCO-TAMRA gel shift / western blot (in vivo screen of dXTPs); format: cell-based, E. coli
Protocol: Analysis of reporter protein fidelity. To directly assess the fidelity of unnatural protein production, cells were harvested 2.5 h after the induction of protein expression and the sfGFP produced was purified and subjected to a strain-promoted azide-alkyne cycloaddition reaction with dibenzocyclooctyne (DBCO) linked to a TAMRA dye by four PEG units. In addition to tagging the proteins containing the ncAA with a detectable fluorophore, conjugation produces a shift in electrophoretic migration, allowing quantification of protein containing AzK as a percentage of the total protein produced (i.e. fidelity of ncAA incorporation; FIG. 3D).
Ten-fold dilutions of the glycerol stock were re-plated onto solid growth media supplemented with dNaMTP (150 μM), dTPT3TP (10 μM), and 2% w/v agar, then grown at 37° C. overnight. Single colonies were picked and grown in growth media (300 μL) supplemented with corresponding dXTP (various concentrations), and dTPT3TP (10 μM), then monitored for cell growth and collected at an OD600˜1.0. Once all samples were collected, samples were left on ice overnight. The samples were then re-diluted to OD600˜0.1, to a final volume of 300 μL and provided with the corresponding dXTP (various concentrations), and dTPT3TP (10 μM). The remaining culture not used was pelleted and stored at −80° C. for subsequent plasmid isolation using the ZR Plasmid Prep Kit (Zymo Research) to determine UBP retention. When cultures reached an OD600˜0.4-0.6, they were provided with NaMTP (250 μM) and TPT3TP (30 μM), and AzK (10 mM) (or ddH2O for cultures grown in the absence of AzK). Samples were shielded from light after addition of AzK to prevent photodegradation. These samples were then grown at 37° C. for 20 min before adding 1 mM IPTG and grown at 37° C. for an additional 1 h to induce T7 RNAP and transcription of tRNAPyl and PylRS. From this point on, cells were monitored for growth and fluorescence. Expression of sfGFP was then induced with anhydrotetracycline (100 ng/mL).
Affinity Purification of sfGFP. Cell pellets collected from translation experiments were resuspended in BugBuster (100 μL 1×, EMD Millipore) and shaken at room temperature for 15 min. The cell lysate was then diluted with Buffer W (380 μL; 50 mM HEPES pH 8, 150 mM NaCl, 1 mM EDTA) and magnetic Strep-Tactin beads (20 μL, 5% (v/v) suspension of MagStrep ‘type3’ XT beads, IBA Lifesciences) equilibrated in Buffer W, were added. The mixture was gently inverted at 4° C. for 30 min. […] Purified proteins were quantified using the Qubit Protein Assay Kit (Thermo Fisher Scientific). […]

E. coli strain YZ3 = experiment: Cell growth / viability in the in vivo screen of dXTPs; format: cell-based; conditions: dXTP 5 μM
Protocol: as §1, with “After an additional 1 h of incubation, the expression of sfGFP^151(AXC) was initiated by the addition of anhydrotetracycline (aTc, 100 ng/mL).” left out
Analysis of reporter protein production. To characterize the amount of protein produced, bulk culture fluorescence normalized to cell growth was measured 2.5 h after the induction of protein expression (FIG. 3C). […] While similar at high concentrations, at lower concentrations the use of each dXTP analog results in a greater AzK-dependent increase in fluorescence than does the use of dNaMTP.
Ten-fold dilutions of the glycerol stock were re-plated onto solid growth media supplemented with dNaMTP (150 μM), dTPT3TP (10 μM), and 2% w/v agar, then grown at 37° C. overnight. […] From this point on, cells were monitored for growth and fluorescence. […]

[3] = dXTP 5 μM (lowest concentration)

Compound	UBP retention in the sfGFP^151(AXC) gene (sfGFP^151(AXC) gene; [3])	UBP retention in the sfGFP^151(AXC) gene (sfGFP^151(AXC) gene; dXTP 10 μM)	UBP retention in the tRNA^Pyl(GYT) gene (tRNA^Pyl(GYT) gene; [3])	UBP retention in the tRNA^Pyl(GYT) gene (tRNA^Pyl(GYT) gene; dXTP 10 μM)	sfGFP fluorescence normalized to cell growth (sfGFP^151(AXC) [1]; dXTP 5 μM)	AzK-dependent increase in fluorescence (sfGFP^151(AXC) [1]; lower dXTP concentrations, compared with dNaMTP)	Fidelity of ncAA incorporation (protein shift) (sfGFP^151(AXC) [2]; dXTP 5 μM)	Fidelity of ncAA incorporation (protein shift) (sfGFP^151(AXC) [2]; dXTP 10 μM)	Quantity of pure unnatural protein produced (sfGFP^151(AXC) [2]; especially at lower concentrations)	UBP retention in the sfGFP^151(AXC) gene (sfGFP^151(AXC) gene; dXTP 150 μM)	sfGFP fluorescence normalized to cell growth (sfGFP^151(AXC) [1]; dXTP 150 or 10 μM)	Cell growth / survival (E. coli strain YZ3)
COc1cc(C)c(F)cc1[C@H]1C[C@H](O)[C@@H](COP(=O)(O)OP(=O)(O)OP(=O)(O)O)O1 [d5FMTP]	94% and ~93%	96%	83%	82%	remained the same	largest AzK-dependent increase in fluorescence	remained similar to that observed at 10 μM	remained high	greatest quantity of pure unnatural protein			
COc1cc2ccccc2cc1[C@H]1C[C@H](O)[C@@H](COP(=O)(O)OP(=O)(O)OP(=O)(O)O)O1 [dNaMTP]		73%		71%				dropped precipitously		99%	significantly less fluorescence at 10 μM than at 150 μM	not observed; also recorded: did not survive

From US11879145B2, “Reagents and methods for replication, transcription, and translation in semi-synthetic organisms” (The Scripps Research Institute, priority 2019, dated 2024)
